Paper PMC11242853, “The Antimicrobial Activity of Human Defensins at Physiological Non-Permeabilizing Concentrations Is Caused by the Inhibition of the Plasma Membrane H^+-ATPases” (International Journal of Molecular Sciences, 2024)
“Also recorded” adds a separate entry of the source. Where no end group is shown, it is not given here.

What was measured:
C. albicans cells = assay: Extracellular potassium measurement (K+-efflux, ICP-MS); format: cell-based, Candida albicans; conditions: Table 2; no reference given
Procedure: Potassium measurements were performed via inductively coupled plasma mass spectrometry using an Agilent 7700x ICP-MS (Agilent Technologies, Santa Clara, CA, USA). C. albicans cells were cultured in SDB for 16–20 h at 30 °C. The cells were then subcultured in the same media to the mid-logarithmic growth phase and rapidly washed in sterile, deionized, double-distilled water. The cells (10^7 cells/mL) were immediately incubated with the peptides (NPIC) for 90 min at 37 °C. The tubes were centrifuged at 1100× g for 10 min and the supernatants were collected and stored at 4 °C until analysis. The percentage of cytosolic potassium released from cell suspensions treated with nystatin (50 μM) was determined in positive control assays. Total cellular K^+-content (100% value) was measured in the supernatant of cell suspensions previously treated with 0.5% (v/v) HClO4 alone, heated for 1 h at 95 °C, and centrifuged to remove cell debris. Results are expressed as the percentage (means ± SD) of K^+-release relative to the total cellular K^+-content from duplicates of at least three independent assays.

P. aeruginosa cells = assay: Oxygen consumption measurement (polarographic), P. aeruginosa; format: cell-based, Pseudomonas aeruginosa; conditions: after 30 min; defensins 2 x NPIC, human lactoferrin 20 μM, piericidin A 32 µM; preincubated 15 min at 37 °C; untreated cells 83% ± 2%; means ± SD, three experiments
Procedure: Oxygen consumption by C. albicans and P. aeruginosa cells was determined by polarographically using a biological oxygen monitor (dual digital-model 20; Rank Brothers Ltd., Cambridge, UK) at 25 °C. The apparatus consisted of a twin water-jacketed closed sample chamber, which enabled a control experiment to be conducted concurrently. The cells were grown to mid-log phase in SDB (C. albicans) or TSB (P. aeruginosa), washed twice in Tris buffer, and resuspended in the same buffer. Cell suspensions (approximately 10^7 cells/mL) were preincubated with defensins (2 x NPIC), human lactoferrin (20 μM), or piericidin A (32 μM) for 15 min at 37 °C. Oxygen consumption was recorded at 5-min intervals for a period of 30 min. Three independent experiments were performed, and the data are means ± SD.

Pma1p H^+-ATPase = conditions: Table 2; no reference given
Procedure: A whole-cell proton transport assay was used to evaluate the possible inhibition of the fungal Pma1p H^+-ATPase by defensins.
To measure proton pumping from Pma1p H^+-ATPase activity, a glucose-induced acid extrusion assay was performed as previously described with modifications. Briefly, cultures of C. albicans cells were grown to mid-log phase in SDB medium and washed twice in 100 mM Tris-HCl (pH 8.0). The cells were then resuspended in 50 mM KCl and maintained for 18 h at 4 °C to reduce metabolic activity to a minimum (starvation conditions). To determine external acidification, starved cells (approximately 10^7 cells/mL) were incubated for 15 min at 37 °C in the presence or absence of the defensins (2 x NPIC). Cells incubated with 20 µM human lactoferrin or 0.5 µM BM2 peptide were used as positive controls. The initial pH of the cell suspension was adjusted to approximately pH 6.8 with HCl, and glucose (final concentration of 2.5 mM) was immediately added to the cell suspension. The pH of the medium was recorded at 5-min intervals for 20 min using a SevenMulti S50-K pH meter (Mettler-Toledo, Greifensee, Switzerland) with a calibrated electrode (InLab 413, Mettler-Toledo) under constant stirring. Each experiment was repeated three times in an independent manner.

[1] = design: method as in 19 sources, ref 24; PMID 3290255; doi:10.1172/JCI113527; 24. Lehrer R.I. Ganz T. Szklarek D. Selsted M.E. Modulation of the in vitro candidacidal activity of human neutrophil defensins by target cell metabolism and divalent cations J. Clin. Invest. 1988 81 || [47]; PMID 11083633; doi:10.1128/AAC.44.12.3310-3316.2000; 47. Edgerton M. Koshlukova S.E. Araujo M.W. Patel R.C. Dong J. Bruenn J.A. Salivary histatin 5 and human neutrophil defensin 1 kill Candida albicans via shared pathways Antimicrob. Agents Chemother. 2 ||| ref 20 = [20]; PMID 17074797; doi:10.1128/AAC.00478-06; 20. Vylkova S. Nayyar N. Li W. Edgerton M. Human beta-defensins kill Candida albicans in an energy-dependent and salt-sensitive manner without causing membrane disruption Antimicrob. Agents Chemother. ||| ref 24, 62 (HNP-1); 62, 63 (HNP-4); 20 (hBD-2); 12, 20 (hBD-3); 34, 35, 64 cidal and 65, 66 static (lactoferrin) ||| ref 26 (HNP-1); 12 (HNP-4); 11 (hBD-2, hBD-3); 43, 67 (lactoferrin) ||| ref 14 (HNP-1); 23 (HNP-4); Yes 11, 13 / No 20 (hBD-2); No 20 / Yes 11 (hBD-3); 31, 34, 42 (lactoferrin) ||| ...; conditions: cited from earlier work; for Cidal/static: 62 (HNP-1), 62, 63 (HNP-4), 12, 20 (hBD-3), 34, 35, 64 cidal and 65, 66 static (lactoferrin); for Cidal/static / Cell death inhibitors, extracellular: K^+ or Na^+: 20 (hBD-2); for Antimicrobial range: Gm+ Gram-positive bacteria, Gm− Gram-negative bacteria, F fungi, V viruses, P protozoa, no reference given; for Membrane permeabilization: ref 14 (HNP-1), 23 (HNP-4), Yes 11, 13 / No 20 (hBD-2), No 20 / Yes 11 (hBD-3), 31, 34, 42 (lactoferrin); for Membrane depolarization: ref 26 (HNP-1), 12 (HNP-4), 11 (hBD-2, hBD-3), 43, 67 (lactoferrin); for candidacidal activity on C. albicans cells treated with CCCP: CCCP at pH 7.4; for Cell death inhibitors, intracellular: Azide: 24 (HNP-1); for Cell death inhibitors, intracellular: Azide / Cell death inhibitors, extracellular: Ca^2+ or Mg^2+: 20 (hBD-2, hBD-3); for Cell death inhibitors, extracellular: Ca^2+ or Mg^2+: 43 (lactoferrin); for Cell death inhibitors, extracellular: K^+ or Na^+: ref 68 (HNP-1), 69 (HNP-4), No 11, 12 / Yes 20 (hBD-3), 31, 36, 43 (lactoferrin)

Row | Substance | Partial K^+-efflux (C. albicans cells) | O2 consumption of P. aeruginosa (P. aeruginosa cells) | Inhibition of H^+-extrusion (yeast) (Pma1p H^+-ATPase) | Cidal/static ([1]; Table 2) | Antimicrobial range ([1]; Table 2) | Membrane permeabilization ([1]; Table 2) | Membrane depolarization ([1]; Table 2) | candidacidal activity on C. albicans cells treated with CCCP [1] | Cell death inhibitors, intracellular: Azide ([1]; Table 2, 34 (lactoferrin)) | Cell death inhibitors, extracellular: Ca^2+ or Mg^2+ ([1]; Table 2, ref 24 (HNP-1)) | Cell death inhibitors, extracellular: K^+ or Na^+ ([1]; Table 2) | ATP-efflux ([1]; Table 2) | Cell death inhibitors, intracellular: Antimycin A (+SHAM) ([1]; Table 2) | Cell death inhibitors, intracellular: CCCP or DNP ([1]; Table 2, ref 24 (HNP-1), 34 (lactoferrin)) | Cell death inhibitors, extracellular: Anoxia ([1]; Table 2, ref 24 (HNP-1), 34, 35 (lactoferrin)) | ATP increment ([1]; Table 2, ref 47 (HNP-1), 35 (lactoferrin))
1 | HNP-4: human α-defensin, UniProtKB P12838, 33 amino acids; purchased from PeptaNova (VCSCRLVFCRRTELRVGNCLIGGVSFTYCCTRV; ends and bridges not checked; cysteine pairing not given here; UniProt P12838 64-96, looked up) | Yes | 75% ± 2% | Yes | Cidal | Gm +,Gm −,F,V | Yes | Yes | – | – | – | – | – | – | – | – | –
2 | hBD-3: human β-defensin, UniProtKB Q5U7J2, 45 amino acids; purchased from PeptaNova (GIINTLQKYYCRVRGGRCAVLSCLPKEEQIGKCSTRGRKCCRRKK; Beta-defensin 103; UniProt P81534 23-67, looked up) | Yes | 82% ± 4% | Yes | Cidal | Gm +,Gm −, F,V,P | – | Yes | protected | Yes | No | No and Yes | – | – | – | – | –
3 | HNP-1: human α-defensin, UniProtKB P59665, 30 amino acids, three disulfide bonds; purchased from PeptaNova | Yes | 72% ± 2% | Yes | Cidal | Gm +,Gm −,F,V,P | Yes | Yes | protected | Yes | Yes (Ca^2+); also recorded: No (Mg^2+) | Yes | Yes | Yes | Yes | Yes | Yes
